# Results: US7186530B1, “Protein associated with cell stress response” (Chiron Corporation, priority 2000, dated 2007)
# What was measured:
# [1] = tested on: p46 hyperphosphorylation; assay: p46 (Nogo B) hyperphosphorylation after UVC irradiation in presence of inhibitors, Western blot with SC-54; type: cell-based, human
# Protocol: FIG. 5. […] Then cells were irradiated with 20 J/m^2 of UVC and lysed 30 minutes later. Whole cell lysates were separated on SDS-PAGE. SC-54 was used for Western Blotting.
# (§1) Cell culture and treatment. Normal human fibroblast IMR90 was purchased from American Type Culture Collection (Manassas, Va.). Cells were routinely cultured in Dulbecco's Modified Eagle's Medium (DMEM) containing 10% fetal bovine serum, 2 mM L-glutamine, 4.5 g/liter glucose, 100 units penicillin and 100 μg streptomycin at 37° C. under an atmosphere of 5% CO2. For UV irradiation, cells were washed twice with phosphate-buffered saline (PBS) and then irradiated with appropriate doses of UVC (254 nm). Fresh complete medium was added back and cells were lysed at appropriate times. For treatment with BPDE, cells were washed with PBS twice and fresh DMEM was added. BPDE was dissolved in anhydrous dimethyl sulfoxide (DMSO) and appropriate amount of BPDE solution was added to DMEM. Cells were lysed 30 minutes later.
# (§2) Western Blotting. Lysates prepared from equal number of cells were mixed with equal volume of 2× sample buffer (50 mM Tris.HCl, pH 6.9, 9% glycerol, 2.3% SDS, 0.1% bromophenol blue and 10% mecaptoethanol) and the proteins were separated on a SDS/polyacrylamide gel. The proteins were then electroblotted onto an Immobilon-P membrane (Millipore, Bedford, Mass.). The blots were blocked for 1 hour at room temperature in Tris-buffered saline (20 mM Tris-HCl, pH 7.6, 137 mM NaCl) containing 0.1% (v/v) Tween 20 and 5% (w/v) non-fat dry milk (blocking solution), and then incubated for 1 hour at room temperature with appropriate antibodies at a concentration of 0.2–1 μg/ml. The blots were washed several times and then incubated with horseradish peroxidase-conjugated goat-anti-mouse IgG (Santa Cruz Biotechnology) that had been diluted 1:3000 with blocking solution. Enhanced chemiluminescence (Amersham, Arlington Heights, Ill.) was used according to the manufacturer's recommendations to detect the signal.
# (§3) The data shown in FIG. 4 were obtained as follows. (A) IMR90 cells were treated with 0, 0.5, 1, or 4 μM of BPDE and trypsinized after 30 minutes. Digitonin-solubilized fraction (Cyto) and NP-40-solubilized fraction (Nuc) were separated on SDS-PAGE. SC-54 was used for Western Blotting. In FIG. 4, (B) IMR90 cells were incubated in the presence or absence of suramin (0.15 mM) for 1 hour before being irradiated with 0 or 20 J/m^2 of UVC. After 0, 10, 20 or 30 minutes, whole cell lysates were prepared, separated on SDS-PAGE and transferred to a PVDF membrane. SC-54 or an antibody against human ERK2 was used for Western Blotting. […] In FIG. 4, (C) IMR90 cells were treated with 0.7 M NaCl, 1 mM H2O2, 0.4 M Sorbitol or PBS (control) for 45 minutes before being lysed. Whole cell lysates were separated on SDS-PAGE. SC-54 was used for Western Blotting.
# It has been shown that elevated cellular stress level can activate p38 MAPK. The role of activation of p38 MAPK in p46 hyperphosphorylation was investigated.
# [2] = tested on: MEK; details: cited from earlier work
# [3] = tested on: p46 hyperphosphorylation; assay: p46 hyperphosphorylation induced by stress-inducing agents, Western blot; type: cell-based, human; details: for hyperphosphorylation of p46 (induction): 45 minutes
# Protocol: FIG. 4. […] (A) IMR90 cells were treated with 0, 0.5, 1, or 4 μM of BPDE and trypsinized after 30 minutes. (B) IMR90 cells were incubated in the presence or absence of suramin (0.15 mM) for 1 hour before being irradiated with 0 or 20 J/m^2 of UVC. (C) IMR90 cells were treated with 0.7 M NaCl, 1 mM H2O2, 0.4 M Sorbitol or PBS (control) for 45 minutes before being lysed.
# as §1, §2, §3
# [4] = tested on: ERK2; assay: ERK2 phosphorylation after UVC irradiation, Western blot; type: cell-based, human; details: preincubation 0.15 mM for 1 hour, 20 J/m^2 UVC, IMR90 cells
# Protocol: as §2
# The data shown in FIG. 4 were obtained as follows. (A) IMR90 cells were treated with 0, 0.5, 1, or 4 μM of BPDE and trypsinized after 30 minutes. Digitonin-solubilized fraction (Cyto) and NP-40-solubilized fraction (Nuc) were separated on SDS-PAGE. SC-54 was used for Western Blotting. […]
# [5] = tested on: p38; details: read-out: IC50 (p38-specific inhibitor); cited from earlier work
smiles,measurement,setting,value
CCc1nc(-c2ccc(OC)cc2)[nH]c1-c1ccncc1 [SB202474],p46 hyperphosphorylation,"[1]; concentration not given, UVC, IMR90 cells",no effect
COc1cccc(-c2cc(=O)c3ccccc3o2)c1N [PD98059],IC50,[2],[…]
same,p46 hyperphosphorylation,[1]; 20 uM,not affected
OC[C@@H](O)[C@@H](O)[C@H](O)[C@@H](O)CO [sorbitol],hyperphosphorylation of p46 (induction),"[3]; 0.4 M, IMR90 cells",rapid hyperphosphorylation
Cc1ccc(C(=O)Nc2ccc(S(=O)(=O)O)c3cc(S(=O)(=O)O)cc(S(=O)(=O)O)c23)cc1NC(=O)c1cccc(NC(=O)Nc2cccc(C(=O)Nc3cc(C(=O)Nc4ccc(S(=O)(=O)O)c5cc(S(=O)(=O)O)cc(S(=O)(=O)O)c45)ccc3C)c2)c1 [suramin],p46 hyperphosphorylation,"[1]; preincubation 0.15 mM for 1 hour, 20 J/m^2 UVC, IMR90 cells",no effect
same,phosphorylation of ERK2,[4],completely blocked
[Cl-].[Na+] [NaCl],hyperphosphorylation of p46 (induction),"[3]; 0.7 M, IMR90 cells",rapid hyperphosphorylation
Oc1ccc(-c2nc(-c3ccc(F)cc3)c(-c3ccncc3)[nH]2)cc1 [SB202190],p46 hyperphosphorylation,"[1]; 270 nM inhibitor, 30 minutes before 20 J/m^2 UVC, IMR90 cells",almost completely abolished
same,hyperphosphorylation of Nogo,"[1]; indicated concentrations for 30 minutes, then 20 J/m^2 UVC, lysed 30 minutes later, IMR90 (FIG. 5)",abolished
"OC1c2cc3ccc4cccc5ccc(c2C2OC2C1O)c3c45 (racemic) [BPDE, (±)-r-7,t-8-dihydroxy-t-9,10-epoxy-7,8,9,10-tetrahydrobenzo(a)pyrene]",p46 hyperphosphorylation (induction),"[3]; 0, 0.5, 1, or 4 μM, 30 minutes, IMR90 cells",led to p46 hyperphosphorylation in a dose-dependent manner
OO [H2O2],hyperphosphorylation of p46 (induction),"[3]; 1 mM, IMR90 cells",rapid hyperphosphorylation
C[C@@]1(CO)[C@H](O)CC[C@@]2(C)[C@H]1CC[C@H]1C[C@@H]3C[C@@]12CC[C@]3(O)CO [aphidicolin],p46 phosphorylation state,[3]; cells arrested by the agent,hyperphosphorylated
